Test results reported in patent US20230049231A1 (priority 2019, published 2023).

How the values were obtained:
Kv1.3 potassium channel = target: T1, Kv1.3 potassium channel (Homo sapiens, UniProt P22001); assay: Kv1.3 potassium channel blocker activity, automated whole-cell patch clamp (Patchliner); assay type: cell-based
T1 construct: expressed in transfected cells
Outline: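 IC50 came from Hill-equation fits of peak and AUC currents from the final pulse at each concentration, normalized to compound-free control. Compounds applied consecutively at 30 nM to 100 μM (up to 0.3% DMSO) to Kv1.3-expressing CHO-K1 cells, P/4 leak subtraction. Pulses were +40 mV, 100 ms, from −90 mV holding, at 0.1 Hz on Patchliner.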

hERG channel = target: T2, hERG channel (Homo sapiens, UniProt Q12809); assay: hERG electrophysiology, automated whole-cell patch clamp (Patchliner); assay type: cell-based
T2 construct: expressed in transfected cells
T2 sequence (Q12809 whole entry): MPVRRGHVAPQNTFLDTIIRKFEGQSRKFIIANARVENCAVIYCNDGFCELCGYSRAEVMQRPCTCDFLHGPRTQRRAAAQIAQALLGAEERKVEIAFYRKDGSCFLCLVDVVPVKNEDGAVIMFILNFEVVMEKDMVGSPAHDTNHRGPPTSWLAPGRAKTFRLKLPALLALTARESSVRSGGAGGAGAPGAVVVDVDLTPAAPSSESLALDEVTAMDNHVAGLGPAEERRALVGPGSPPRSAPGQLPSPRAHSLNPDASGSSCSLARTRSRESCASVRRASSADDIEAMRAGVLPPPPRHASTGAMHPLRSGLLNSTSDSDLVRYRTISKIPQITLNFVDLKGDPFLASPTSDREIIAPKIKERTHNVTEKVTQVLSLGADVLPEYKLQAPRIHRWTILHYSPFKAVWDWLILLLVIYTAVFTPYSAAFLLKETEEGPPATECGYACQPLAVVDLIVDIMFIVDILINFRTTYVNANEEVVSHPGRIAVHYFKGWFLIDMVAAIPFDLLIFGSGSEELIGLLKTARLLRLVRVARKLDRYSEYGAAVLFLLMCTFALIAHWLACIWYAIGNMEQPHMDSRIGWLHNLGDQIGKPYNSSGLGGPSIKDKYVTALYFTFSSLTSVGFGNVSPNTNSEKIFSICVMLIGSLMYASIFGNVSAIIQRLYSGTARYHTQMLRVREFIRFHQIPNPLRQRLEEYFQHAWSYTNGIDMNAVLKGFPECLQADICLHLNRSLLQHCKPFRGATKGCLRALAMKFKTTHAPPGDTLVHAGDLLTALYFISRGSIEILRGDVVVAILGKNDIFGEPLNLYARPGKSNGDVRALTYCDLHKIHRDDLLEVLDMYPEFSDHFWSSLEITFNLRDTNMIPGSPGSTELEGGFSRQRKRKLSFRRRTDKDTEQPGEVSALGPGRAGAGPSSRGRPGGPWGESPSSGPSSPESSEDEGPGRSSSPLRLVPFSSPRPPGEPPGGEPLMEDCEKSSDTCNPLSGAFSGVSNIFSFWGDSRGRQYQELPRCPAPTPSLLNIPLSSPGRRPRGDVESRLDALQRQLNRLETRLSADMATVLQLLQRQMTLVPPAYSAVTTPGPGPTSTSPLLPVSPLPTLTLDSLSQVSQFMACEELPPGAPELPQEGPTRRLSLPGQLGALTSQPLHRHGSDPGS
Outline: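 Automated whole-cell patch clamp on CHO-K1 cells stably expressing hERG; 30 nM–100 μM applied cumulatively to the same cell, ≤0.3% DMSO. Pulses: −80 mV holding, +20 mV for 300 ms, −50 mV for 300 ms tail, 0.3 Hz, 70 per concentration. Last-pulse AUC and peak, normalized to control, were fitted to a Hill equation for IC50.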

[1] = Kv1.3 potassium channel, whole-cell patch clamp
[2] = hERG channel, whole-cell patch clamp
[3] = CHO-K1 cells stably expressing Kv1.3, 100 ms pulses from -90 mV to +40 mV, 0.1 Hz
[4] = CHO-K1 cells stably expressing hERG, +20 mV 300 ms, -50 mV 300 ms tail current, 0.3 Hz

T1 sequence (P22001 whole entry): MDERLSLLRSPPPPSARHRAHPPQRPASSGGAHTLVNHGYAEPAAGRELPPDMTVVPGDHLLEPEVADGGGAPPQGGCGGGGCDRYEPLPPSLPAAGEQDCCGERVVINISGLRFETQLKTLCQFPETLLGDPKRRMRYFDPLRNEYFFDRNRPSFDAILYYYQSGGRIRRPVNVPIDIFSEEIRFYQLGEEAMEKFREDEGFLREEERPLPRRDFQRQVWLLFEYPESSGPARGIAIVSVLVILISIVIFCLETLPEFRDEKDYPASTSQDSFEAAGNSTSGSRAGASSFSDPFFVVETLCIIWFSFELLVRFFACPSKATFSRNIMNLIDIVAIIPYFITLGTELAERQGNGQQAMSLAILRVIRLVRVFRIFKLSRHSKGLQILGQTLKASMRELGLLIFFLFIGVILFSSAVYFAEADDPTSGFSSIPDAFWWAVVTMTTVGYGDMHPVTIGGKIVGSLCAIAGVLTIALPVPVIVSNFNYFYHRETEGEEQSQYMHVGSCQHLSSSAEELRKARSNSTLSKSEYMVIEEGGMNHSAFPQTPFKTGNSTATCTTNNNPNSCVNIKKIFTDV

Row | SMILES | IC50 (Kv1.3 potassium channel; [1]) [µM] | IC50 (Kv1.3 potassium channel; [3]) [µM] | IC50 (hERG channel; [2]) [µM] | IC50 (hERG channel; [4]) [µM]
1 | O=C1O[C@H](CN2CC(O)C2)[C@@H]2C[C@H](c3c(O)ccc(Cl)c3Cl)CN12 (single isomer, unassigned) [Compound 283] | < 1 |  | > 30 | 
2 | C[C@@H](O)[C@@H](CO)N1CC(=O)N2C[C@@H](c3c(O)ccc(Cl)c3Cl)C[C@H]2C1 (relative stereo) [Compound 166, (7R,8aS)-7-(2,3-dichloro-6-hydroxyphenyl)-2-[(2R,3R)-rel-1,3-dihydroxybutan-2-yl]-hexahydropyrrolo[1,2-a]pyrazin-4-one] | < 1 |  | > 30 | 
3 | CCNC(=O)N1CC(=O)N2C[C@@H](c3c(O)ccc(Cl)c3Cl)C[C@H]2C1 [Compound 35, (7R,8aS)-7-(2,3-dichloro-6-hydroxyphenyl)-N-ethyl-4-oxo-hexahydropyrrolo[1,2-a]pyrazine-2-carboxamide] |  | < 1 |  | > 30
4 | O=C1CN(C2CC(O)C2)C[C@@H]2C[C@H](c3c(O)ccc(Cl)c3Cl)CN12 (stereo partly drawn) [Compound 123, (7R,8aS)-7-(2,3-dichloro-6-hydroxyphenyl)-2-(3-hydroxycyclobutyl)-hexahydropyrrolo[1,2-a]pyrazin-4-one] | < 1 |  | > 30 | 
5 | O=C1CN(C2CCNCC2)C[C@@H]2C[C@H](c3c(O)ccc(Cl)c3Cl)CN12 [Compound 141, (7R,8aS)-7-(2,3-dichloro-6-hydroxyphenyl)-2-(piperidin-4-yl)-hexahydropyrrolo [1,2-a]pyrazin-4-one] | < 1 |  | > 30 | 
6 | C[C@@H](O)CN1CC(=O)N2C[C@@H](c3c(O)ccc(Cl)c3Cl)C[C@H]2C1 (single isomer, unassigned; isomer 1) [Compound 150] | < 1 |  | > 30 | 
7 | O=C([C@@H](O)CO)N1CC(=O)N2CC[C@@H](c3c(O)ccc(Cl)c3Cl)C[C@H]2C1 [Compound 23, (8R,9aS)-8-(2,3-dichloro-6-hydroxyphenyl)-2-[(2S)-2,3-dihydroxypropanoyl]-hexahydro-1H-pyrido[1,2-a]pyrazin-4-one] |  | < 1 |  | > 30
8 | NC(=O)N1CC(=O)N2CC[C@@H](c3c(O)ccc(Cl)c3Cl)C[C@H]2C1 [Compound 96, (8R,9aS)-8-(2,3-dichloro-6-hydroxyphenyl)-4-oxo-hexahydro-1H-pyrido[1,2-a]pyrazine-2-carboxamide] | < 1 |  | > 30 | 
9 | CC(=O)NCC1OC(=O)N2C[C@@H](c3c(O)ccc(Cl)c3Cl)C[C@@H]12 (stereo partly drawn) [Compound 276, N-[[(6R,7aS)-6-(2,3-dichloro-6-hydroxyphenyl)-3-oxo-tetrahydro-1H-pyrrolo[1,2-c][1,3]oxazol-1-yl]methyl]acetamide] | < 1 |  | > 30 | 
10 | O=C1O[C@@H](CN2CCNCC2)[C@@H]2C[C@H](c3c(O)ccc(Cl)c3Cl)CN12 (single isomer, unassigned) [Compound 279] | < 1 |  | < 30 | 
11 | O=C(C[C@@H](O)C(F)F)N1CC(=O)N2C[C@@H](c3c(O)ccc(Cl)c3Cl)C[C@H]2C1 [Compound 76, (7R,8aS)-7-(2,3-dichloro-6-hydroxyphenyl)-2-[(3R)-4,4-difluoro-3-hydroxybutanoyl]-hexahydropyrrolo [1,2-a]pyrazin-4-one] | < 1 |  | > 30 | 
12 | COC[C@@H](O)CN1CC(=O)N2C[C@@H](c3c(O)ccc(Cl)c3Cl)C[C@H]2C1 (single isomer, unassigned; isomer 1) [Compound 152] | < 1 |  | < 30 | 
13 | O=C1CN(CC2(O)CNC2)C[C@@H]2C[C@H](c3c(O)ccc(Cl)c3Cl)CN12 [Compound 157, (7R,8aS)-7-(2,3-dichloro-6-hydroxyphenyl)-2-[(3-hydroxyazetidin-3-yl)methyl]-hexahydropyrrolo[1,2-a]pyrazin-4-one;] | < 1 |  | > 30 | 
14 | O=C1CN(C[C@@H]2CNCCO2)C[C@@H]2C[C@H](c3c(O)ccc(Cl)c3Cl)CN12 [Compound 146, (7R,8aS)-7-(2,3-dichloro-6-hydroxyphenyl)-2-[(2S)-morpholin-2-ylmethyl]-hexahydropyrrolo [1,2-a]pyrazin-4-one] | < 1 |  | > 30 | 
15 | O=C1CN(CCN2CCOCC2)C[C@@H]2C[C@H](c3c(O)ccc(Cl)c3Cl)CN12 [Compound 121, (7R,8aS)-7-(2,3-dichloro-6-hydroxyphenyl)-2-[2-(morpholin-4-yl)ethyl]-hexahydropyrrolo [1,2-a]pyrazin-4-one] | < 1 |  | < 30 | 
16 | O=C([C@@H](O)CO)N1CC(=O)N2CC[C@H](c3c(O)ccc(Cl)c3Cl)C[C@@H]2C1 [Compound 64, (8S,9aR)-8-(2,3-dichloro-6-hydroxyphenyl)-2-[(2S)-2,3-dihydroxy-propanoyl]-hexahydro-1H-pyrido[1,2-a]pyrazin-4-one] | < 1 |  | > 30 | 
17 | CC(CO)(CO)N1CC(=O)N2C[C@@H](c3c(O)ccc(Cl)c3Cl)C[C@H]2C1 [Compound 162, (7R,8aS)-7-(2,3-dichloro-6-hydroxyphenyl)-2-(1,3-dihydroxy-2-methylpropan-2-yl)-hexahydropyrrolo[1,2-a]pyrazin-4-one] | < 1 |  | > 30 | 
18 | O=C1O[C@H](CN2CCOCC2)[C@@H]2C[C@H](c3c(O)ccc(Cl)c3Cl)CN12 (single isomer, unassigned) [Compound 285] | < 1 |  | > 30 | 
19 | CC1(C)OC(=O)N2C[C@@H](c3c(O)ccc(Cl)c3Cl)C[C@H]2C1O (stereo partly drawn) [Compound 257, (4aS,6R)-6-(2,3-dichloro-6-hydroxyphenyl)-4-hydroxy-3,3-dimethylhexahydro-1H-pyrrolo[1,2-c][1,3]oxazin-1-one] | < 1 |  | > 30 | 
20 | CNC(=O)[C@@H]1OC(=O)N2C[C@@H](c3c(O)ccc(Cl)c3Cl)C[C@@H]12 (single isomer, unassigned) [Compound 288] | < 1 |  | > 30 | 
21 | O=C1CN(C2CC[C@@H](O)[C@H]2O)C[C@@H]2C[C@H](c3c(O)ccc(Cl)c3Cl)CN12 (relative stereo) [Compound 136, (7R,8aS)-7-(2,3-dichloro-6-hydroxyphenyl)-2-[(2S,3R)-rel-2,3-dihydroxycyclopentyl]-hexahydropyrrolo [1,2-a]pyrazin-4-one] | < 1 |  | > 30 | 

Now from value to compound, other results behind:

Row | IC50 (Kv1.3 potassium channel; [1]) [µM] | IC50 (Kv1.3 potassium channel; [3]) [µM] | SMILES | IC50 (hERG channel; [2]) [µM] | IC50 (hERG channel; [4]) [µM]
22 | < 1 |  | O=C1CC(O)C[C@@H]2C[C@H](c3c(O)ccc(Cl)c3Cl)CCN12 (stereo partly drawn) [Compound 250, (8R,9aS)-8-(2,3-dichloro-6-hydroxyphenyl)-2-hydroxy-octahydroquinolizin-4-one] | > 30 | 
23 | < 1 |  | O=C1C[C@H](O)[C@H](O)[C@@H]2C[C@H](c3c(O)ccc(Cl)c3Cl)CN12 (relative stereo) [Compound 225, (7S,8R)-rel-(2R, 8aS)-2-(2,3-dichloro-6-hydroxyphenyl)-7,8-dihydroxy-hexahydro-1H-indolizin-5-one] | > 30 | 
24 | < 1 |  | NCC1CC(=O)N2C[C@@H](c3c(O)ccc(Cl)c3Cl)C[C@H]2C1 (stereo partly drawn) [Compound 217, (2R,8aR)-7-(aminomethyl)-2-(2,3-dichloro-6-hydroxyphenyl)-hexahydro-1H-indolizin-5-one] | > 30 | 
25 | < 1 |  | O=C1C[C@@H](NCCO)C[C@@H]2C[C@H](c3c(O)ccc(Cl)c3Cl)CN12 (single isomer, unassigned) [Compound 202] | > 30 | 
26 | < 1 |  | CN(CCO)[C@@H]1CC(=O)N2C[C@@H](c3c(O)ccc(Cl)c3Cl)C[C@H]2C1 (single isomer, unassigned) [Compound 204] | > 30 | 
27 |  | < 1 | O=C1C[C@H](O)C[C@@H]2C[C@H](c3c(O)ccc(Cl)c3Cl)CN12 (single isomer, unassigned; isomer 2) [Compound 62] |  | > 30
28 | < 1 |  | NC[C@]1(O)CC(=O)N2C[C@@H](c3c(O)ccc(Cl)c3Cl)C[C@H]2C1 (single isomer, unassigned) [Compound 219] | > 30 | 
29 | < 1 |  | O=C1C[C@H](CN2CC(O)C2)C[C@@H]2C[C@H](c3c(O)ccc(Cl)c3Cl)CN12 (single isomer, unassigned) [Compound 243] | < 30 | 
30 | < 1 |  | C[C@@H]1NC[C@@H]2C[C@H](c3c(O)ccc(Cl)c3Cl)CN2C1=O [Compound 85, (3S,7R,8aS)-7-(2,3-dichloro-6-hydroxyphenyl)-3-methyl-hexahydro-1H-pyrrolo[1,2-a]pyrazin-4-one] | < 30 | 
31 | < 1 |  | CN(C)[C@@H]1CC(=O)N2C[C@@H](c3c(O)ccc(Cl)c3Cl)C[C@H]2C1 (single isomer, unassigned) [Compound 200] | < 10 | 
32 | < 1 |  | O=C1C(O)C(O)C[C@@H]2C[C@H](c3c(O)ccc(Cl)c3Cl)CN12 (stereo partly drawn) [Compound 226, (2R,8aS)-2-(2,3-dichloro-6-hydroxyphenyl)-6,7-dihydroxy-hexahydro-1H-indolizin-5-one] | > 30 | 
33 | < 1 |  | CN(C)[C@H]1CC(=O)N2C[C@@H](c3c(O)ccc(Cl)c3Cl)C[C@H]2C1 (single isomer, unassigned) [Compound 201] | < 10 | 
34 | < 1 |  | O=C1C[C@H](N2CC[C@H](O)C2)C[C@@H]2C[C@H](c3c(O)ccc(Cl)c3Cl)CN12 (single isomer, unassigned) [Compound 193] | > 30 | 
